Laboratory results reported in patent publication US20050233985A1, “Rsk inhibitors and therapeutic uses thereof” (priority 2003, published 2005).
Entries after “also recorded” stand apart in the source; their conditions may differ.

Key:
[1] = system: LNCaP cells; assay: Proliferation of LNCaP cells (CellTiter-Glo); assay type: cell-based, human; conditions: 50 μM, 44 hrs after treatment
Method: (§1) Cell viability was measured at indicated time points. Proliferation assays were conducted using CellTiter-Glo Luminescent Cell Viability Assay (Promega), performed 44 hrs after treatment for FIGS. 8A &B and at indicated points for FIG. 8C. The data are expressed relative to time 0.
(§2) Cell Culture. For proliferation studies cells were seeded at 2500 to 5000 cells per well in 96 well tissue culture plates in the appropriate medium as described by American Type Culture Collection. After 24 hr, the medium was replaced with medium containing compound or vehicle as indicated. Cell viability was measured at indicated time points using CellTiter-Glo™ assay reagent (Promega) according to manufacturer's protocol. For in vivo inhibition studies, cells were seeded at 2.5×10^5 cells/well in 12 well cell culture clusters. After 24 hr, the cells were serum starved for 24 hr then incubated with compound or vehicle for 3 hr prior to a 30 min PDB stimulation. Cells were lysed as previously described (J. Biol. Chem. 273, 13317-13323 (1998)). The lysates were normalized for total protein, electrophoresed and immunoblotted. For cell imaging, Ha-Ras-transformed NIH/3T3 cells were seeded on LABTEK II chamber slides (Nalge) at a density of 1×10^4 cells/well. After 24 hr, fresh medium was added the indicated compounds or vehicle. Images were taken 48 hr after treatment at a magnification of 20×.

[2] = system: p140 phosphorylation in MCF-7 cells; assay: PDB-induced p140 phosphorylation in MCF-7 cells (immunoblot); assay type: cell-based, human; conditions: 100 μM, 3 hr pre-incubation, 500 nM PDB 30 min
Method: (§3) Cells were treated with 500 nM PDB for 30 min prior to lysis. Protein concentration of lysates was measured and lysates were electrophoresed, transferred and immunoblotted.
as §2

[3] = system: MAPK, MEK, Raf and PKC; assay: Upstream MAPK pathway kinases in PDB-stimulated cells (Rsk mobility shift, anti-active MAPK); assay type: cell-based, human
Method: Specific inhibition of Rsk in situ was determined by incubation of MCF-7 cells in the presence or absence of increasing concentrations of extract fraction enriched in SL0101 prior to stimulation of the MAPK pathway with phorbol dibutyrate (PDB). […] Thus, SL0101 is a Rsk-specific inhibitor in situ as well as in vitro and can be used as an investigative tool for defining the function of Rsk in situ.
as §3, §2

[4] = system: Ha-ras-transformed NIH/3T3 cells; assay: Proliferation of transformed cells (CellTiter-Glo); assay type: cell-based
Method: Cells were treated with vehicle, 50 μM SL0101, or 50 μM PD 98059 (PD 98059 is a MEK-specific inhibitor). Proliferation was measured using Promega CellTiter-Glo™ Luminescent cell viability assay.
as §2

[5] = system: p140 phosphorylation in MCF-10A cells; assay: PDB-induced p140 phosphorylation in MCF-10A cells (immunoblot); assay type: cell-based; conditions: 3 hr pre-incubation, 500 nM PDB 30 min
Method: as §3, §2

[6] = system: p140 phosphorylation in LNCaP cells; assay: p140 phosphorylation in LNCaP line (anti-RPM antibody); assay type: cell-based, human; conditions: efficacy paralleled inhibition of LNCaP proliferation
Method: The ability of SL1011-1 to inhibit the proliferation of the androgen-dependent human prostate line, LNCaP was tested. […] To investigate the Rsk signal transduction pathway in the LNCaP line, a phosphospecific antibody to a Rsk phosphorylation motif (RPM) was produced. Only a few downstream effectors of Rsk have been identified and therefore, applicants anticipated that an anti-RPM antibody would be a very effective tool for identifying novel Rsk substrates in vivo. An anti-RPM antibody has previously been reported that recognizes the Rsk substrate, p140, a protein of unknown function. […] All lysates were normalized to each other using an anti-Ran antibody. Ran is used for normalization based on the observations that it is a general housekeeping protein, the activity or expression levels of which are not known to vary in any disease state.

[7] = system: MCF-7 cells; assay type: cell-based
Method: as §1, §2

[8] = target: T1, Rsk2(1-389) (Homo sapiens, UniProt P51812); assay: Kinase assay of immunoprecipitated HA-tagged Rsk2 amino-terminal kinase domain; assay type: biochemical; conditions: 2 μM
T1 construct: a truncation mutant of Rsk2 containing only the NTKD (Rsk2(1-389)); expressed in transfected cells; host or cells: BHK21, EGF-stimulated; anti-HA immunoprecipitate
T1 sequence (P51812 1-389): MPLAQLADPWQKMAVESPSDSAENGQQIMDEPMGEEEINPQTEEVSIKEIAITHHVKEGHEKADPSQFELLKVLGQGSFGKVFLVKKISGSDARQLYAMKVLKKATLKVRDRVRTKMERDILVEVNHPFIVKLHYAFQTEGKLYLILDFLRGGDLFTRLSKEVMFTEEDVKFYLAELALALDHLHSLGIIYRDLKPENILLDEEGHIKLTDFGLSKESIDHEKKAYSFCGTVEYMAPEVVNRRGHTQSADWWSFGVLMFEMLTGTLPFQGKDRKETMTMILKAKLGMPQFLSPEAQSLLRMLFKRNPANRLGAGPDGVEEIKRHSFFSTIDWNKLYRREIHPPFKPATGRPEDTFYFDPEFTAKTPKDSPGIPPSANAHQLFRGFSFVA

[9] = target: T2, Msk1 (Homo sapiens, UniProt O75582); assay: Msk1 kinase ELISA; assay type: biochemical; conditions: purified compounds
T2 construct: purchased Upstate Biotechnology
T2 sequence (O75582 whole entry, species assumed): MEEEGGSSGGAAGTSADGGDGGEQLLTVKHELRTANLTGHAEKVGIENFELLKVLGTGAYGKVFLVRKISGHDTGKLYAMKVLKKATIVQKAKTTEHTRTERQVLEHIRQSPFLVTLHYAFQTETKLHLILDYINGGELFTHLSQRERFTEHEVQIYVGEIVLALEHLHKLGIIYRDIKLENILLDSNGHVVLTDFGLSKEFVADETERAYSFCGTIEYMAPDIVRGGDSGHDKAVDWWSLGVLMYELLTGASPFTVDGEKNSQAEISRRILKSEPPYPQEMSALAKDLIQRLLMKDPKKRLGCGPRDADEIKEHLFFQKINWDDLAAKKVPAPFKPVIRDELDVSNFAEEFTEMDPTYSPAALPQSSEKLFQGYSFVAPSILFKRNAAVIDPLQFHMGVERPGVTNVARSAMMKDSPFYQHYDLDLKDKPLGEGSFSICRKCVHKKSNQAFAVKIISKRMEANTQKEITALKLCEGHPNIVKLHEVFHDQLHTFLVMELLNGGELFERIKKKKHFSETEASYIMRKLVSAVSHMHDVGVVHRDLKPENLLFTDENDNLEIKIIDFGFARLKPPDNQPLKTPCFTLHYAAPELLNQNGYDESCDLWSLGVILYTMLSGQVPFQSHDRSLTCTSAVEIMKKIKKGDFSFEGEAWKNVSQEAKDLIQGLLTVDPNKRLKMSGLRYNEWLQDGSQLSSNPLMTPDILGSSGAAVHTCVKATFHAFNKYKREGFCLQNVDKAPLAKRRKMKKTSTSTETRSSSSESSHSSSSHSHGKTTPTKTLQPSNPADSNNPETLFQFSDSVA
Method: (§4) Kinase Assays. Glutathione-S-transferase (GST)-fusion protein (1 g) containing the sequence -[…] (SEQ ID NO: 3, for serine/threonine kinase assays) or -[…] (SEQ ID NO: 4, for tyrosine kinase assays) was adsorbed in the wells of LumiNunc 96-well polystyrene plates (MaxiSorp surface treatment). The wells were blocked with sterile 3% tryptone in phosphate buffered saline and stored at 4° C. for up to 6 months. Kinase (5 nM) in 70 μl of kinase buffer (5 mM -glycerophosphate pH 7.4, 25 mM HEPES pH 7.4, 1.5 mM DTT, 30 mM MgCl2, 0.15 M NaCl) was dispensed into each well. Compound at indicated concentrations or vehicle was added, and reactions were initiated by the addition of 30 μl of ATP for a final ATP concentration of 10 μM unless indicated otherwise. Reactions were terminated after 10 to 45 min by addition of 75 μl of 500 mM EDTA, pH 7.5. All assays measured the initial velocity of reaction. After extensive washing of wells, polyclonal phosphospecific antibody developed against the phosphopeptide and HRP-conjugated anti-rabbit antibody (211-035-109, Jackson ImmunoResearch Laboratories) were used to detect serine phosphorylation of the substrate. HRP-conjugated anti-phospho-tyrosine antibody (RC20, BD Transduction Laboratories) was used for phospho-tyrosine detection. His-tagged active Rsk and FAK were expressed in Sf9 cells and purified using NiNTA resin (Qiagen). Baculovirus was prepared using the Bac-to-Bac® baculovirus expression system (Invitrogen). PKA was bacterially expressed and activated as described (Anal. Biochem. 245, 115-122 (1997)). Active Msk1 and p70 S6 kinase was purchased from Upstate Biotechnology. Immunoprecipitation and kinase assays were performed as previously described (Poteet-Smith et al., J. Biol. Chem, 274, 22135-22138 (1999) using the immobilized GST-fusion proteins and ELISAs as above.

[10] = target: T3, protein kinase A (PKA) (Homo sapiens, UniProt P17612); assay: PKA kinase ELISA; assay type: biochemical; conditions: purified compounds
T3 construct: made in house; host or cells: bacteria
Method: as §4

CC(=O)OC1C(C)OC(Oc2c(-c3ccc(O)cc3)oc3cc(O)cc(O)c3c2=O)C(O)C1OC(C)=O [SL0101-1, kaempferol 3-α-L-(3″,4″-diacetyl) rhamnopyranoside]
proliferation of LNCaP cells [1]: completely inhibit
PDB-induced p140 phosphorylation [2]: abrogates
activation of MAPK (anti-active MAPK antibody) [3]: does not effect
inhibition of upstream kinases PKC, Raf, MEK, MAPK in cells [3]: does not inhibit
phosphorylation of Rsk by MAPK (reduced electrophoretic mobility) [3]: does not effect
reversibility of inhibition of cell proliferation (washout) ([4]; 50 μM for 48 hr, then medium replaced, viability 48 hr later): resulted in growth of the transformed cells; also recorded: reversible
proliferation of Ha-ras-transformed NIH/3T3 cells ([4]; 50 μM, 48 hour time course, 10% fetal calf serum): decreased the growth rate; also recorded: halts proliferation; also recorded: inhibits; also recorded: inhibited the proliferation
toxicity to intact cells ([4]; Ha-Ras transformed and parental NIH/3T3 cells): not toxic
morphology of transformed cells ([4]; images 48 hr after treatment): striking morphology changes
PDB-induced p140 phosphorylation in MCF-10A cells [5]: prevented
phosphorylation of p140 [6]: decrease the phosphorylation
cell death of MCF-7 cells ([7]; 50 μM): did not cause cell death
MCF-7 cell viability compared to vehicle control ([7]; 50 μM in serum-free medium (serum deprivation)): significantly reduced cell viability
proliferation of MCF-7 cells ([7]; 50 μM, 44 hrs after treatment): inhibited proliferation; also recorded: inhibits the proliferation
inhibition of isolated Rsk2 NTKD [8]: potently inhibited; also recorded: inhibits activity
inhibition of MSK [9]: do not inhibit
inhibition of Protein Kinase A [10]: do not inhibit
